Data reported in article PMC11943294, “Identification of Key Active Constituents in Eucommia ulmoides Oliv. Leaves Against Parkinson’s Disease and the Alleviative Effects via 4E-BP1 Up-Regulation” (International Journal of Molecular Sciences, 2025).
pKd: −log10 of the molar value.

What was measured:
4E-BP1 [1] = target: T1, 4E-BP1 (Homo sapiens, UniProt Q13541); assay: SPR (BIAcore T200, CM5 chip, immobilized 4E-BP1, […] Langmuir); format: binding
T1 construct: gene EIF4EBP1; amine-coupled to CM5 chip; PDB 2JGB used for docking only
T1 sequence (Q13541 2-118): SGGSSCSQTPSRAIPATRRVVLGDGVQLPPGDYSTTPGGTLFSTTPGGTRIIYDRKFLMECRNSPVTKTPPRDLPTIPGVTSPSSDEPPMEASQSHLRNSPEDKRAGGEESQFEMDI

4E-BP1 [2] = target: T1, 4E-BP1; assay: as above; details: 25 °C; 0-125 μM analyte; unreliable (discussion b43 prints another KD, 3.75 × 10^−5 M, and a negative deviation of the binding curve)

Row | SMILES | pKd (4E-BP1 [1]) | KD (4E-BP1 [2]) [µM]
1 | O=C(O)/C=C/c1ccc(O)c(O)c1 [caffeic acid] | 4.89 | 
2 | O=C(/C=C/c1ccc(O)c(O)c1)O[C@H]1[C@H](O)C[C@](O)(C(=O)O)C[C@H]1O [cryptochlorogenic acid] |  | 4.469
3 | O=C(/C=C/c1ccc(O)c(O)c1)O[C@@H]1C[C@](O)(C(=O)O)C[C@@H](O)[C@H]1O [chlorogenic acid] | 4.26 | 
